Measurements: the supplement of paper PMC11208160

Test: recombinant barcode read abundance after kanamycin selection (control-corrected) (log10(CPM+1)); higher = more efficient recombination; sequences stand for … in AGTGCAGAGAAAATCGGCCAGTTTTCTCTGCCTGCAGTCCGCATGCCGT…AGATTTATGCAGCGGACTGCCTTTCTCCCAAAGTGATAAACCGGACAGTATCATGGACCGGTTTTCCCGGTAATCCGTATTTGCAAGGTTGGTTTCACT; site = the 11-nt target
Procedure, shortened: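 Each value is log10(CPM+1). It describes recombination efficiency, taken as averaged, control-corrected counts per million of barcodes at recombinant junctions. The pooled E. coli library paired targets with IS621 bridge RNA target-binding loops, was co-electroporated with a donor plasmid, and was plated twice on chloramphenicol/ampicillin LB agar (control) and twice on chloramphenicol/ampicillin/kanamycin containing 0.1 mM IPTG.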
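Note: IS621 recombinase and bridge RNA in Escherichia coli cells.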

Sequence | recombinant barcode read abundance (log10)
GATTCTCCTTGGGTTCTAACCTGTTGCCT (site GATTCTCCTAT) | 0
GATTGTCCTTGGGTTCTAACCTGTTGCTT (site GATTGTCCTAA) | 0.294
GATTGTCCTTGGGTTCTAACCTGTTGCTT (site GGTTGTCCTTA) | 0.23
GCAATCCCTTGGGTTCTAACCTGTTGCTA (site AGAATCCCTTA) | 0.0668
GCAATCCCTTGGGTTCTAACCTGTTGCTA (site GCAATCCCTTA) | 1.48
GCAATTGCTTGGGTTCTAACCTGTTGCCT (site AAGTCGTCTTA) | 0.19
GCAATTGCTTGGGTTCTAACCTGTTGCCT (site GCAATTGCTAG) | 0.458
GCACAAGCTTGGGTTCTAACCTGTTGCCT (site GCACAAGCTAG) | 0.978
GCACAAGCTTGGGTTCTAACCTGTTGCCT (site GCTCTAGCTAG) | 0.091
GCACATACTTGGGTTCTAACCTGTTGCCT (site GCACATACTAG) | 1.2
GCACATACTTGGGTTCTAACCTGTTGCCT (site GCACATTCTAG) | 0
GCACCAACTTGGGTTCTAACCTGTTGCCT (site CCACCGACTAG) | 0.242
GCACCAACTTGGGTTCTAACCTGTTGCCT (site GCACCAACTAG) | 1.12
GCACGACCTTGGGTTCTAACCTGTTGCCT (site GCACAACCTAG) | 0.808
GCACGACCTTGGGTTCTAACCTGTTGCCT (site GCACCACCTAG) | 0.0505
GCACGACCTTGGGTTCTAACCTGTTGCCT (site GCACGACCTAG) | 1.56
GCACGACCTTGGGTTCTAACCTGTTGCCT (site GCACTACCTAG) | 0
GCACGGACTTGGGTTCTAACCTGTTGCAG (site GCAAGGACTCT) | 0.223
GCACGGACTTGGGTTCTAACCTGTTGCAG (site GCACGGACTCT) | 2.35
GCACGGACTTGGGTTCTAACCTGTTGCAG (site GCAGGGACTCT) | 0.164
GCACGGACTTGGGTTCTAACCTGTTGCAG (site GCATGGACTCT) | 0.3
GCACTAACTTGGGTTCTAACCTGTTGCCT (site GCACTAACTAG) | 1.14

Sequence | recombinant barcode read abundance (log10)
GCACTAACTTGGGTTCTAACCTGTTGCCT (site GCACTAGCTAC) | 0.216
GCAGGGACTTGGGTTCTAACCTGTTGCAG (site GCAAGGACTCT) | 0.883
GCAGGGACTTGGGTTCTAACCTGTTGCAG (site GCACGGACTCT) | 0.552
GCAGGGACTTGGGTTCTAACCTGTTGCAG (site GCAGGGACTCT) | 1.72
GCAGGGACTTGGGTTCTAACCTGTTGCAG (site GCATGGACTCT) | 0.224
GCAGGGTCTTGGGTTCTAACCTGTTGCCT (site GCAAGATCTAG) | 0.158
GCAGGGTCTTGGGTTCTAACCTGTTGCCT (site GCAGGGTCTAG) | 1.45
GCATCGTCTTGGGTTCTAACCTGTTGCCT (site GCATCGTCTAG) | 0.649
GCATCGTCTTGGGTTCTAACCTGTTGCCT (site GCCTCGTCTAG) | 0.0437
GCATCGTCTTGGGTTCTAACCTGTTGCCT (site GCGTCGTCTAG) | 0.0424
GCATCGTCTTGGGTTCTAACCTGTTGCCT (site GCTTCGTCTAG) | 0.0989
GCCAACCCTTGGGTTCTAACCTGTTGCTT (site GCCAACCCTAA) | 0.0414
GCCAACCCTTGGGTTCTAACCTGTTGCTT (site GCCAACCCTAC) | 0.0528
GCCAACCCTTGGGTTCTAACCTGTTGCTT (site GCCAACCCTAG) | 0.412
GCCAACCCTTGGGTTCTAACCTGTTGCTT (site GCCAACCCTAT) | 0.39
GCCATCACTTGGGTTCTAACCTGTTGCCT (site GCCATAACTAG) | 0.00743
GCCATCACTTGGGTTCTAACCTGTTGCCT (site GCCATCACTAG) | 0.112
GCCATCACTTGGGTTCTAACCTGTTGCCT (site GCCATGACTAG) | 0.152
GCCATCACTTGGGTTCTAACCTGTTGCCT (site GCCATTACTAG) | 0.12
GCCATCTCTTGGGTTCTAACCTGTTGCCT (site GCCATCTCTAG) | 0.0476
GCCATCTCTTGGGTTCTAACCTGTTGCCT (site GCCGTCTCTAG) | 0.0992
GCCATGTCTTGGGTTCTAACCTGTTGCCT (site GCCATGTCTAG) | 0.502

Sequence | recombinant barcode read abundance (log10)
GCCATGTCTTGGGTTCTAACCTGTTGCCT (site GTCATGTCTAG) | 0.0158
GCCCATCCTTGGGTTCTAACCTGTTGCTA (site GCCCATCCTTA) | 1.36
GCCCATCCTTGGGTTCTAACCTGTTGCTA (site TAGTGAGCTCG) | 0.222
GCCCCATCTTGGGTTCTAACCTGTTGCCT (site GCCCAATCTAG) | 0.00703
GCCCCATCTTGGGTTCTAACCTGTTGCCT (site GCCCCATCTAG) | 0.601
GCCCCATCTTGGGTTCTAACCTGTTGCCT (site GCCCGATCTAG) | 0.37
GCCCCATCTTGGGTTCTAACCTGTTGCCT (site GCCCTATCTAG) | 0.384
GCCCCGCCTTGGGTTCTAACCTGTTGCAG (site GCCACGCCTCT) | 0.319
GCCCCGCCTTGGGTTCTAACCTGTTGCAG (site GCCCCGCCTCT) | 1.02
GCCCCGCCTTGGGTTCTAACCTGTTGCAG (site GCCGCGCCTCT) | 0.00897
GCCCCGCCTTGGGTTCTAACCTGTTGCAG (site GCCTCGCCTCT) | 0.0556
GCCCGGGCTTGGGTTCTAACCTGTTGCCG (site GCCAGGGCTCG) | 0.144
GCCCGGGCTTGGGTTCTAACCTGTTGCCG (site GCCCGGGCTCG) | 0.309
GCCCGGGCTTGGGTTCTAACCTGTTGCCG (site GCCGGGGCTCG) | 0.0496
GCCCGGGCTTGGGTTCTAACCTGTTGCCG (site GCCTGGGCTCG) | 0.0679
GCCCGTGCTTGGGTTCTAACCTGTTGCCT (site GCACGTGCTAG) | 0.377
GCCCGTGCTTGGGTTCTAACCTGTTGCCT (site GCCCGTGCTAG) | 1.31
GCCCGTGCTTGGGTTCTAACCTGTTGCCT (site GCGCGTGCTAG) | 0.177
GCCCGTGCTTGGGTTCTAACCTGTTGCCT (site GCTCGTGCTAG) | 0.0122
GCCCTGCCTTGGGTTCTAACCTGTTGCCT (site GCACTGCCTAG) | 0.705
GCCCTGCCTTGGGTTCTAACCTGTTGCCT (site GCCCTGCCTAG) | 1.43
GCCCTTGCTTGGGTTCTAACCTGTTGCCT (site GAACTTGCTAG) | 0.114

Sequence | recombinant barcode read abundance (log10)
GCCCTTGCTTGGGTTCTAACCTGTTGCCT (site GCCCTTGCTAG) | 1.79
GCCGACACTTGGGTTCTAACCTGTTGCCT (site GCCGAAACTAG) | 0.0569
GCCGACACTTGGGTTCTAACCTGTTGCCT (site GCCGACACTAG) | 0.13
GCCGACACTTGGGTTCTAACCTGTTGCCT (site GCCGAGACTAG) | 0.284
GCCGACACTTGGGTTCTAACCTGTTGCCT (site GCCGATACTAG) | 0.17
GCCGAGTCTTGGGTTCTAACCTGTTGCTC (site GCCGAGTCTAA) | 0.191
GCCGAGTCTTGGGTTCTAACCTGTTGCTC (site GCCGAGTCTCA) | 0.0833
GCCGAGTCTTGGGTTCTAACCTGTTGCTC (site GCCGAGTCTGA) | 1.2
GCCGAGTCTTGGGTTCTAACCTGTTGCTC (site GCCGAGTCTTA) | 0.371
GCCGATCCTTGGGTTCTAACCTGTTGCCT (site GACGATCCTAG) | 0.332
GCCGATCCTTGGGTTCTAACCTGTTGCCT (site GCCGATCCTAG) | 0.12
GCCGATCCTTGGGTTCTAACCTGTTGCCT (site GGCGATCCTAG) | 0.205
GCCGATCCTTGGGTTCTAACCTGTTGCCT (site GTCGATCCTAG) | 0.0291
GCCGCGCCTTGGGTTCTAACCTGTTGCAG (site GCCACGCCTCT) | 0.0533
GCCGCGCCTTGGGTTCTAACCTGTTGCAG (site GCCCCGCCTCT) | 0.271
GCCGCGCCTTGGGTTCTAACCTGTTGCAG (site GCCGCGCCTCT) | 0.116
GCCGCGCCTTGGGTTCTAACCTGTTGCAG (site GCCTCGCCTCT) | 0.13
GCCGCTCCTTGGGTTCTAACCTGTTGCCT (site GCCGCTCCTAG) | 0.163
GCCGCTCCTTGGGTTCTAACCTGTTGCCT (site GCGGTTCCTAG) | 0.098
GCCTATGCTTGGGTTCTAACCTGTTGCCT (site GACTATGCTAG) | 0.115
